Assay results from patent US20250235467A1, “DENDRITIC CELL VACCINATION IN PARALLEL TO CHEMOTHERAPY” (priority 2018, published 2025).
Like-named read-outs stand apart in the source and are kept apart here. Marks after values point to notes of the source that are not given here.

Key:
[1] = test system: platinum-sensitive recurrent ovarian cancer; settings: cited from earlier work; for PFS HR: p <0.0001
[2] = test system: metastatic stage IV non-small cell lung cancer (NSCLC); experiment: Open label, multicenter phase II clinical trial, DCVAC/LuCa + carboplatin and paclitaxel vs carboplatin and paclitaxel alone; format: in vivo, human; settings: PP population; interim analysis of PFS
Experimental: The purpose of the study is to compare efficacy of DCVAC/LuCa+chemotherapy (carboplatin and paclitaxel) vs. carboplatin and paclitaxel alone in patients with stage IV NSCLC, as measured by OS and progression free survival (PFS). PFS was measured based on radiological assessments according to the RECIST (Response Evaluation Criteria in Solid Tumors) guidelines (version 1.1) (Eisenhauer et al. 2009).
The planned number of chemotherapy cycles was 4-6 in all treatment groups (FIG. 7).

[3] = test system: newly diagnosed epithelial ovarian carcinoma
Experimental: The study was conducted as an open label, multicenter phase II clinical trial in women with newly diagnosed epithelial ovarian carcinoma who have undergone debulking surgery.
The planned number of chemotherapy cycles was 6 in all treatment groups (FIG. 1).
Results were calculated either by using as beginning of the trial period the time of first treatment or the time of randomization. Two pre-planned per protocol interim analyses of PFS and OS were performed first at 6 months and second at 12 months after the last dose of standard of care chemotherapy of the last enrolled patient. […]

[4] = test system: relapsed platinum-sensitive epithelial ovarian cancer; experiment: Randomized, open-label phase II clinical trial, DC vaccine added to carboplatin and gemcitabine vs chemotherapy alone; format: in vivo, human; settings: ITT population, N = 32 per group
Text: An interim analysis was first performed, followed later by the final analysis.
A total of 6, 8, or 10 cycles of standard of care chemotherapy were to be completed by patients in both treatment groups as per investigators' decision (FIG. 4).

[5] = group A: after the start of DC vaccine treatment, group B: shorter reporting time period

## Bevacizumab
[1]; bevacizumab 15 mg/kg IV q3w + carboplatin AUC4 + gemcitabine, p 0.6479
  OS HR: 0.952^c
[1]; bevacizumab 15 mg/kg IV q3w + carboplatin AUC4 + gemcitabine, p 0.6479, listed as bevacizumab
  OS HR: 0.952
[1]; bevacizumab 15 mg/kg IV q3w + carboplatin AUC4 + gemcitabine
  PFS HR: 0.48^c
[1]; bevacizumab 15 mg/kg IV q3w + carboplatin AUC5 + paclitaxel, p 0.0447
  OS HR: 0.823^c
[1]; bevacizumab 15 mg/kg IV q3w + carboplatin AUC5 + paclitaxel, p 0.0447, listed as bevacizumab
  OS HR: 0.823
[1]; bevacizumab 15 mg/kg IV q3w + carboplatin AUC5 + paclitaxel
  PFS HR: 0.613^c

## carboplatin and paclitaxel
[2]
  Progression of the lung cancer disease: progressed for all patients
[3]; ITT population, N = 31 per group
  No. of 1st-line chemotherapy non-responders: n (%): 0 (0.00%) n (%)
[3]; [5]
  Number of SAEs reported: 14
  Number of patients in whom SAEs were reported: 9

## carboplatin and gemcitabine
[4]
  No. of 2nd-line chemotherapy non-responders: n (%): 0 (0.00%) n (%)
